In patent EP0039265A1, “Medicine containing a biflavanone compound” (SCIENCE UNION ET Cie SOCIETE FRANCAISE DE RECHERCHE MEDICALE, priority 1980, dated 1981):
pIC50: −log10 of the molar value.

Assays:
[1] = molecular target: T1, aldose-réductase extraite de cristallins de rats (Rattus norvegicus, UniProt P07943); assay: Aldose reductase inhibition in vitro (NADPH disappearance); assay type: biochemical; conditions: rat lens enzyme, pH 7, 25°C, 10 min preincubation, substrate aldéhyde d-glycérique; read-out: inhibition à 50 %
T1 construct: l'aldose-réductase extraite de cristallins de rats; from tissue; host or cells: rat lens (CD River rats)
Description: L'activité inhibitrice d'aldose-réductase des composés de la présente invention a été mise en évidence par des essais in vitro sur l'aldose-réductase […] selon la technique […] et J.H. KINOSHITA, J. Biol. Chem. 240 (1965) 877, […] et J.H. KINOSHITA, Biochemical Pharmacolo- gy 5 (1976) 2505-2613. : La biflavanone (I), mise en suspension dans du tampon pH 7, est placée en incubation à 25°C dans un […] bouché contenant l'aldose-réductase […] CD River. Après 10 mn de contact, le substrat ([…] introduit dans la cuve deré- action. La cinétique enzymatique est appréciée par la disparition, du milieu, du co-facteur Ac. Nicotinamide-adénine diphosphorique réduite (NADPH) selon la réaction : [drawing 6] On calcule l'activité enzymatique par détermination de la quantité de NADPH disparue. Les résultats sont exprimés en pourcentage de l'activité enzymatique de la préparation en l'absence de tout inhibiteur. Dans ces conditions on peut déterminer, par exemple, la dose minimale qui inhibe à 50 % l'activité enzymatique.

[2] = system: perméabilité des parois des vaisseaux sanguins; assay: Ambrose and De Eds method: time of appearance of Trypan blue at chloroform-irritated skin; assay type: in vivo, lapin; conditions: voie orale, suspension, rabbit, maximum of activity about 6 to 7 h after administration
Description: Nous avons utilisé une méthode dérivée de celle décrite par AMBROSE et DE EDS [J. Pharm. Exp. Ther. 90, 359 (1947)] . Un lapin mâle fauve, d'un poids compris entre 2,0 et 2,5 kg, est épilé sur toute la région ventrale à l'aide d'une pâte au sulfure de baryum. Le lendemain l'animal reçoit, en injection intraveineuse 25mg/kg d'une'solution aqueuse de Bleu Trypan à 1 p. 100. Trente minutes après cette injection,on applique pendant 30 secondes un tampon de coton de 1,2 cm de côté, imbibé de chloroforme, en deux ou trois points de la zone êpi- lée, et on note le temps d'apparition de la couleur bleue.
Ce temps doit être sensiblement constant quel que soit le point d'application du tampon et traduit la plus ou moins grande rapidité avec laquelle le colorant quitte le courant sanguin pour imprégner les tissus sous-cutanés.
Le produit à tester est alors aussitôt administré soit par voie intra-péritonéale, soit par voie orale. L'agent irritant est appliqué de nouveau, à des intervalles de quinze minutes, en d'autres points de la zone épilée : on note à chaque fois le temps d'apparition de la coloration bleue.
On opère en principe sur des lots de sept lapins par dose et par produit. Il est à noter que : • - la réponse à l'agent irritant n'étant pas forcément identique selon le point d'application sur l'abdomen, il faut faire varier systématiquement "les points témoins" et les "points traités" d'un lapin à l'autre; • - il faut toujours considérer le temps d'apparition de la coloration bleue et non le temps de son développement complet; • - au bout d'une heure d'expérience, et à chaque heure ensuite, il faut refaire une injection intraveineuse de Bleu Trypan de 1ml de solution aqueuse à 1 p.100; • - chaque lapin est son propre témoin.
Le protocole opératoire précédent a été utilisé et les doses suivantes ont été administrées : 500 mg et 1.000 mg/kg. La biflavanone (I) a été ingérée sous forme de solution aqueuse additionnée de 5 % de gomme adragante. Les résultats sont évalués en pourcentage d'augmentation du temps d'apparition de la couleur bleue au niveau du point d'application par rapport au temps de base mesuré avant traitement, et comparés à des substances de référence administrées dans les mêmes conditions catéchine hydrate, hespéridine, quercétine, rutine. Les résultats sont consignés dans le tableau ci-dessous, le maximum d'activité étant obtenu 6 à 7 heures environ après l'administration du produit.

[3] = High-dose toxicity, intraperitoneal administration, rat; conditions: in vivo, ip, rat Sprague Dawley, male, read-out: dose maximale toujours tolérée
Description: Elle a été déterminée sur des groupes homogènes de souris Swiss et NMRI mâles, de race pure, pesant de 19 à 22 g et sur des groupes homogènes de rats Sprague Dawley màles adultes d'un poids moyen de 300 g..
En administration intrapéritonéale, aussi bien chez le rat que chez la souris, la dose maximale toujours tolérée est supérieure à 3 et 4.000 mg/kg.

résistance capillaire = assay: Parrot method: capillary resistance under vitamin P-deficient diet; assay type: in vivo; conditions: injection of 50 mg/kg; cobaye; mean of 10 animals; measured 3 to 48 h after administration
Description: Pour mettre en évidence l'action sur la résistance capillaire, nous avons utilisé […]. PARROT et coll. [C.R. Soc. Biol. 140 750 (1946)]. Elle consiste à étudier les variations de la résistance capillaire chez le cobaye soumis à un […] vitaminique P(C2), mais équilibré en vitamine C. La résistance capillaire est mesurée au niveau de la région lombaire en appliquant sur la peau, préalablement épilée, une ventouse de verre de 5 mm de diamètre. On détermine la valeur de la dépression, exprimée en cm de mercure; qu'il faut réaliser pour […], au bout de 50 secondes environ, 3 […] sur la surface entourée. Cette dépression […] comprise entre 25 et 35 cm de mercure, mais elle chute à 10 cm de Hg chez les animaux soumis au […]é pendant 10 jours. […] L'élévation de la résistance capillaire et sa durée sont […]- quement par la valeur de la surface obtenue en portant sur un système de coordonné[…]. On a constaté […] surface est de 20,8 cm ^2 après injection de 50 mg/kg de biflavanone (I), […] que la même dose de rutine ne donne que 6,42 cm^2.

perméabilité capillaire = assay: Lefebvre technique: appearance of a dye at an intradermal histamine injection site; assay type: in vivo; conditions: intraperitoneal 100 mg/kg, rat
Description: D'autres tests, utilisés chez le rat, ont confirmé les possibilités de la biflavanone dans la diminution de la perméabilité capillaire par rapport aux produits de référence classiques, et notamment les tests réalisés selon la technique de […]. Soc. Biol. 1, 183 (1962)] qui consiste à observer l'apparition d'un colorant au niveau d'une injection intradermique d'histamine. Il a été constaté que l'infection intrapéritonéale de 100 mg/kg de biflavanone (I) […]'apparition de la coloration de 70 % . La rutine a la même dose ne provoque qu'un retard de 12 %

[4] = system: perméabilité des parois des vaisseaux sanguins; assay: Beach and Steinetz method: Trypan blue content of chloroform-irritated skin; assay type: in vivo, lapin; conditions: rabbit
Description: La technique d'AMBROSE et DE EDS a été modifiée afin de mesurer la coloration de la tache selon la technique de BEACH et STEINETZ [(J. Pharm. Expl. Therap. (1961) 131, n° 1, p. 400 à 406)]. Des lapins New-Zealand mâles de 2,5 kg reçoivent une injection IP de produit à tester, ou d'eau gommée pour les témoins.
Trente minutes après, sur la peau abdominale.préalablement épilée, un tampon de chloroforme est appliqué trente secondes, afin de créer une irritation locale qui favorise la diffusion du colorant hors des capillaires vers les liquides interstitiels.
Immédiatement après,une solution de Bleu Trypan à 25mg/kg est injectée dans la veine marginale de l'oreille. Une tache bleue apparait à l'endroit irrité. Le lapin est tué par Einjection intracardiaque de pentobarbital, 30 minutes après l'injection du Bleu Trypan.
Les fragments de peau sont prélevés, posés et laissés à digérer 24 heures dans HCI pur. Le Bleu Trypan est dosé selon la technique de BEACH et STEINETZ.
Après la dissolution complète, l'addition de 3 ml de chlorure de Benzalkonium en solution aqueuse à 12,80 % complexe le colorant qui est ensuite repris par 5 ml de chloroforme. Après centrifugation, la phase chloroformique bleue est rapidement soutirée et filtrée, la lecture spectrophotométrique est faite immédiatement afin d'éviter une concentration du colorant par évaporation du chloroforme. Les densités optiques à 620 mn sont traduites en µg de bleu/100 mg de tissu.
Le protocole opératoire précédent a été utilisé et les doses 200 et 400 mg ont été administrées. Les résultats, exprimés en ng de colorant par 100 g de peau fraiche sont donnés dans le tableau suivant : […]

[5] = I.P. 200 mg/kg, eau gommée control 4,62 ± 1,4
[6] = I.P. 400 mg/kg, eau gommée control 5,01 ± 2,3

Structure (SMILES)	pIC50 [1]	Augmentation % du temps d'apparition par rapport au temps témoin ([2]; 1.000 mg/kg)	Augmentation % du temps d'apparition par rapport au temps témoin ([2]; 500 mg/kg)	other results
O=C(O)CN1C(=O)c2cccc3cccc(c23)C1=O [Alrestatine, alrestatine]	6.00			
O=C1c2c(O)cc(O)c(C3C(=O)c4c(O)cc(O)cc4OC3c3ccc(O)c(O)c3)c2OC(c2ccc(O)c(O)c2)C1O (stereo not drawn) [Biflavanone (I), manniflavone]	6.60 to 7.00	125%	50%	MTD [3]: > 3 mg/kg; surface (élévation de la résistance capillaire et sa durée, planimétrie) (résistance capillaire): 20,8 cm^2; retard de l'apparition de la coloration (perméabilité capillaire): 70%; CON[…] BLEU TRYPAN [4, 5]: 4 ± 2,3 µg/100 g DE PEAU; CON[…] BLEU TRYPAN [4, 6]: 3,1 ± 2,3 µg/100 g DE PEAU
Oc1cc(O)c2c(c1)O[C@H](c1ccc(O)c(O)c1)[C@@H](O)C2 [Catéchine hydrate]		50%	38%	
COc1ccc(-c2cc(=O)c3c(O)cc(O[C@@H]4O[C@H](CO[C@@H]5O[C@@H](C)[C@H](O)[C@@H](O)[C@H]5O)[C@@H](O)[C@H](O)[C@H]4O)cc3o2)cc1O [Diosmine, diosmine]	4.00 to 4.30			CONCENTRATION DU BLEU TRYPAN [4, 5]: 2,66 ± 2 µg/100 g DE PEAU; CONCENTRATION DU BLEU TRYPAN [4, 6]: 2,50 ±1,6 µg/100 g DE PEAU
COc1ccc([C@@H]2CC(=O)c3c(O)cc(O[C@@H]4O[C@H](CO[C@@H]5O[C@@H](C)[C@H](O)[C@@H](O)[C@H]5O)[C@@H](O)[C@H](O)[C@H]4O)cc3O2)cc1O [Hespé-ridine, hespéridine]		0%	0%	
O=c1c(O)c(-c2ccc(O)c(O)c2)oc2cc(O)cc(O)c12 [Quercé-tine, quercétine]		0%	0%	
C[C@@H]1O[C@@H](OC[C@H]2O[C@@H](Oc3c(-c4ccc(O)c(O)c4)oc4cc(O)cc(O)c4c3=O)[C@H](O)[C@@H](O)[C@@H]2O)[C@H](O)[C@H](O)[C@H]1O [Rutine, rutine]		77%	27%	surface (élévation de la résistance capillaire et sa durée, planimétrie) (résistance capillaire): 6,42 cm^2; retard de l'apparition de la coloration (perméabilité capillaire): 12%; CONCENTRATION DU BLEU TRYPAN [4, 5]: 3,6 ± 1,8 µg/100 g DE PEAU; CONCENTRATION DU BLEU TRYPAN [4, 6]: 3,2 ± 2 µg/100 g DE PEAU
